Measured values published in patent US7189711B2, “2, 3-benzodiazepine derivatives and pharmaceutical compositions containing the same as the active ingredient” (Egis Gyogyszergyar RT., priority 2000, dated 2007).

How the values were obtained:
[1] = test system: male NMRI mice; assay: Neuroprotective effect in magnesium chloride induced global cerebral ischemia in mice; assay type: in vivo; settings: intraperitoneal, 30 minutes before i.v. saturated magnesium chloride; linear regression over four doses
Method: Neuroprotective Effect in Magnesium Chloride Induced Global Cerebral Ischemia in Mice
The examination was carried out on groups consisting of 10 male NMRI mice weighing 20–25 g. The compounds to be examined were dissolved in a mixture of 5 volumes of 5M aqueous hydrochloric acid and 95 volumes of water, then the pH value of the solution was adjusted to 3 by the addition of 1M aqueous sodium hydroxide solution. The solution obtained was administered intraperitoneally in a volume of 10 ml/kg. Each compound was tested at four increasing dose levels, and a further group of animals was treated only with the vehicle (the latter was the control group). 30 minutes after treatment, all mice received an intravenous injection of saturated aqueous magnesium chloride solution in a volume of 5 ml/kg. This injection caused an immediate cardiac arrest and complete cerebral ischemia. The increase in survival time (i.e. the interval between the injection of magnesium chloride and the last observable gasp) was considered as a measure of the neuroprotective effect according to Berga et al. [Berga, P. et al., Synergistic interactions between piracetam and dihydroergocristine in some animal models of cerebral hypoxia and ischaemia, Arzneim. -Forsch., 36, 1314–1320 (1986)]. Percentage changes in survival time were calculated in comparison to that measured in the control group, and, from the values obtained, the dose prolonging survival by 50% (PD50) was calculated by linear regression analysis.

[2] = test system: male Wistar rats; assay: Duration of action in rats as assessed from the decrease in body core temperature (radiotelemetry); assay type: in vivo; settings: intraperitoneal, mean of 6 animals
Method: Duration of Action in Rats as Assessed From the Decrease in Body Core Temperature
One week prior to treatments, 6 male Wistar rats were anaesthetized by administering 60 mg/kg of pentobarbital sodium [sodium 5-ethyl-5-(1-methylbutyl)barbiturate]intraperitoneally. Using sterile surgical procedures, TL11M2C50-PXT or TA10TA-F40 type radiotelemetry transmitters (Data Sciences International, St. Paul, Minn., USA) were implanted into the peritoneal cavity of the animals. The transmitters permitted continuous monitoring of the core body temperature. After implantation, the rats were treated with an antibiotic (benzathine-benzylpenicillin was administered in a dose of 1 ml/kg i.m.). [The chemical name of benzathine-benzylpenicillin: [2S-(2α,5α,6β)]-3,3-dimethyl-7-oxo-6-[(phenoxyacetyl)amino]-4-thia-1-azabicyclo[3.2.0]heptane-2-carboxylic acid]. The animals were housed individually in type 2 plastic rat cages with free access to food and tap water.
The compounds to be examined were dissolved in a mixture of 5 volumes of 5M aqueous hydrochloric acid and 95 volumes of water, then the pH value of the solution was adjusted to 3 by the addition of 1M aqueous sodium hydroxide solution. The solution obtained was administered intraperitoneally in a volume of 10 ml/kg.
Radio signals emitted by the transmitters were detected by RLA1000 or RLA2000 type receivers placed under each cage. Data were collected and saved by a Dataquest IV computerized data acquisition system. The computer was set to sample body temperature for 10 seconds in every second minute. Mean values for 30 min. periods over the whole day were calculated running the “sort utility” of the Dataquest IV system. The upper and lower limits of the evaluating routine were set to exclude biologically improbable values. Individual body temperature curves were averaged for the 6 animals.
Peak effect (PE) was measured as the maximum decrease in body temperature in comparison to the last value prior to treatment (control value). Using the mean values, duration of action (D) of the compounds was determined. This is the time interval from treatment to return of body temperature to the control level.

[3] = N-acetylation in rat liver slices (N-acetyl metabolite by HPLC); assay type: in vitro ADME, Wistar rats; settings: 50 μM compound, 37° C.
Method: Reduction of the rate of N-acetylation due to ortho substitution
Liver slices of Wistar rats were incubated in oxigenized Krebs-Ringer solution at 37° C. in the presence of 50 μM of 2,3-benzodiazepine derivative examined. 0.5 ml aliquots were taken at the beginning of the examination, then after 30 and 60 minutes. Plasma proteins were precipitated with perchloric acid and, after alkalization, the 2,3-benzodiazepine derivatives were extracted with chloroform. The chloroform solutions were evaporated to dryness, the residue was dissolved in the corresponding eluent. The 2,3-benzodiazepine derivative used and the N-acetyl metabolite thereof were determined by high pressure liquid chromatography (Beckman System Gold HPLC, C-18 reversed-phase column) using an UV detector (at 240 nm). Different eluents were used for the optimal separation of the compounds. In case of the compound according to Example 1 and the corresponding 1-(4-amino-phenyl) analogue, the eluent consisted of a mixture of 50% of 2 mM heptafluoro-butyric acid, 25% of methanol and 25% of acetonitrile. For the compound according to Example 3 and the corresponding 1-(4-amino-phenyl) analogue, the eluent was a mixture of 50% of 2 mM heptafluorobutyric acid, 20% of methanol and 30% of acetonitrile. For the compound according to Example 4 and the corresponding 1-(4-amino-phenyl) analogue, the eluent consisted of a mixture of 50% of 2 mM heptafluorobutyric acid and 50% of acetonitrile.
The percentage of N-acetyl metabolite content of the sample taken at a certain time was calculated by dividing the hundredfold of the peak area of the metabolite with the sum of the peak areas of the 2,3-benzodiazepine derivative used and the N-acetyl metabolite. The results obtained are shown in Table 1 in which the concentrations determined after 0, 30 and 60 minutes are indicated.

SMILES | PD50 (dose prolonging survival by 50%) [1] [mg/kg] | D (duration of action, time from treatment to return of body temperature to control level) [2] [h] | PE (peak effect, maximum decrease in body temperature vs. last value prior to treatment) [2] | further results
CC(=O)N1N=C(c2ccc(N)c(Cl)c2)c2cc(Cl)ccc2CC1C (racemic) [Example 3, (±)-3-Acetyl-1-(4-amino-3-chlorophenyl)-4,5-dihydro-8-chloro-4-methyl-3H-2,3-benzodiazepine] |  |  |  | melting point: 143 to 144 °C
CCC(=O)N1N=C(c2ccc(N)cc2)c2cc(Cl)c(Cl)cc2CC1C (stereo not shown) [Example 5a, 1-(4-aminophenyl)-4,5-dihydro-7,8-dichloro-4-methyl-3-propionyl-3H-2,3-benzo-diazepine, reference compound] | 14.6 |  |  | 
CC(=O)N1N=C(c2ccc(N)c(C)c2)c2cc(Cl)c(Cl)cc2CC1C (racemic) [Example 4, (±)-3-Acetyl-1-(4-amino-3-methylphenyl)-4,5-dihydro-7,8-dichloro-4-methyl-3H-2,3-benzodiazepine] | 9.0 | 19 | −3.09 Δ° C. | 
CC(=O)N1N=C(c2ccc(N)cc2)c2cc(Cl)ccc2CC1C (stereo not shown) [Example 1a, 3-acetyl-1-(4-amino-phenyl)-4,5-dihydro-8-chloro-4-methyl-3H-2,3-benzo-diazepine, reference compound] | 10.4 |  |  | 
CC(=O)N1N=C(c2ccc(N)c(C)c2)c2ccc(Cl)cc2CC1C (racemic) |  |  |  | melting point: 200 to 205 °C
CCC(=O)N1N=C(c2ccc(N)c(C)c2)c2cc(Cl)ccc2CC1C (racemic) [Example 2, (±)-1-(4-Amino-3-methylphenyl)-4,5-dihydro-8-chloro-4-methyl-3-propionyl-3H-2,3-benzodiazepine] |  | 6 | −2.04 Δ° C. | 
COc1ccc2c(c1)C(c1ccc(N)c(C)c1)=NN(C(C)=O)C(C)C2 (racemic) |  |  |  | melting point: 169 to 171 °C
CCC(=O)N1N=C(c2ccc(N)cc2)c2cc(Cl)ccc2CC1C (stereo not shown) [Example 2a, 1-(4-aminophenyl)-4,5-dihydro-8-chloro-4-methyl-3-propionyl-3H-2,3-benzo-diazepine, reference compound] |  | 4 | −1.87 Δ° C. | 
CC(=O)N1N=C(c2ccc(N)cc2)c2cc(Cl)ccc2CC1C (stereo not shown) [Example 1a, 3-acetyl-1-(4-amino-phenyl)-4,5-dihydro-8-chloro-4-methyl-3H-2,3-benzo-diazepine] |  |  |  | Amount of N-acetyl metabolite in % ([3]; incubation time 0 min): 0%; Amount of N-acetyl metabolite in % ([3]; incubation time 30 min): 18%; Amount of N-acetyl metabolite in % ([3]; incubation time 60 min): 31%
CC(=O)N1N=C(c2ccc(N)cc2)c2cc(Cl)c(Cl)cc2CC1C (stereo not shown) [Example 4a, 3-acetyl-1-(4-amino-phenyl)-4,5-dihydro-7,8-dichloro-4-methyl-3H-2,3-benzo-diazepine, reference compound] | 11.0 | 3.5 | −1.72 Δ° C. | 
CC(=O)N1N=C(c2ccc(N)c(C)c2)c2cc(Cl)ccc2CC1C (racemic) [Example 1, (±)-3-Acetyl-1-(4-amino-3-methylphenyl)-4,5-dihydro-8-chloro-4-methyl-3H-2,3-benzodiazepine] | 4.6 | 20 | −2.34 Δ° C. | 
CCC(=O)N1N=C(c2ccc(N)c(C)c2)c2cc(Cl)c(Cl)cc2CC1C (racemic) [Example 5, (±)-1-(4-Amino-3-methylphenyl)-4,5-dihydro-7,8-dichloro-4-methyl-3-propionyl-3H-2,3-benzodiazepine] | 12.3 |  |  | 
